Results: ChEMBL document CHEMBL1909046, “DrugMatrix in vitro pharmacology data”

How the values were obtained:
[1] = biological target: Beta-2 adrenergic receptor (Homo sapiens, UniProt P07550); experiment: DRUGMATRIX: Adrenergic beta2 radioligand binding (ligand: [3H] CGP-12177); type: cell membranes, CHO, Membrane; conditions: cho; Not Active = under 50% inhibition at 10 µM
[2] = biological target: Protein kinase C alpha type (Homo sapiens, UniProt P17252); type: cell-based; conditions: sf9;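 further: inhibition of PKCalpha kinase activity measured in an enzyme assay with histone as the phosphorylation substrate; in other assays of this panel Not Active means under 50% inhibition at 10 µM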
[3] = biological target: Insulin receptor (Rattus norvegicus, UniProt P15127); type: cell membranes, Wistar, Liver, Membrane; further: in other assays of this panel Not Active means under 50% inhibition at 10 µM
[4] = biological target: T1, 3-hydroxy-3-methylglutaryl-coenzyme A reductase (Homo sapiens, UniProt P04035); set-up: species or system Escherichia coli;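 further: enzyme inhibition assay of HMG-CoA reductase using radiolabeled [14C]HMG-CoA as substrate; in other assays of this panel Not Active means under 50% inhibition at 10 µM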
T1 sequence (P04035 whole entry): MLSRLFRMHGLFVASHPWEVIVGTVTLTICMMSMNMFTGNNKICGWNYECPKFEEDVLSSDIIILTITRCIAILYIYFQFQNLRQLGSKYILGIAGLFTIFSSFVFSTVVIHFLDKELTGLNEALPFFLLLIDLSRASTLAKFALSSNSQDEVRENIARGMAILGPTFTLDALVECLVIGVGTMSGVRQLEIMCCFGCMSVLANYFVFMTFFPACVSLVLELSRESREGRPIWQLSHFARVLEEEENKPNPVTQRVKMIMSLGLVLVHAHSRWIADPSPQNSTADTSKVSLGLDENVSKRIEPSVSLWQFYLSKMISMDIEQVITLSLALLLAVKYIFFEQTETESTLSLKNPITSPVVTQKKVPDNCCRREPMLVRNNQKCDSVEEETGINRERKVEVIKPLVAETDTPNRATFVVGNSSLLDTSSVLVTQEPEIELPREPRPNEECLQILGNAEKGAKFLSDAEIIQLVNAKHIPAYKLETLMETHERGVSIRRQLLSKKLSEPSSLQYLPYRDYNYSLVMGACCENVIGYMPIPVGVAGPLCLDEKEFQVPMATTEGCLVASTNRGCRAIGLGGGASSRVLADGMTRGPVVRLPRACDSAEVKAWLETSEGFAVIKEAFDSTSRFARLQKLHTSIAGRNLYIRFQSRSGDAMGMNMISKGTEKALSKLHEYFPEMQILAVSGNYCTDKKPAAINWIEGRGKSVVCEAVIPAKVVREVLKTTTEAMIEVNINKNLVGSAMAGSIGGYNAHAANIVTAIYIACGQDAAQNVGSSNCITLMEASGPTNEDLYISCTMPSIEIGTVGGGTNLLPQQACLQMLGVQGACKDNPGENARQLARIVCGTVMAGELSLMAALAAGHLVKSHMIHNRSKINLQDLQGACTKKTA

[5] = biological target: T2, C-X-C chemokine receptor type 2 (Homo sapiens, UniProt P25025); type: cell membranes, CHO-K1, Membrane; conditions: cho-k1; further: in other assays of this panel Not Active means under 50% inhibition at 10 µM
T2 sequence (P25025 whole entry): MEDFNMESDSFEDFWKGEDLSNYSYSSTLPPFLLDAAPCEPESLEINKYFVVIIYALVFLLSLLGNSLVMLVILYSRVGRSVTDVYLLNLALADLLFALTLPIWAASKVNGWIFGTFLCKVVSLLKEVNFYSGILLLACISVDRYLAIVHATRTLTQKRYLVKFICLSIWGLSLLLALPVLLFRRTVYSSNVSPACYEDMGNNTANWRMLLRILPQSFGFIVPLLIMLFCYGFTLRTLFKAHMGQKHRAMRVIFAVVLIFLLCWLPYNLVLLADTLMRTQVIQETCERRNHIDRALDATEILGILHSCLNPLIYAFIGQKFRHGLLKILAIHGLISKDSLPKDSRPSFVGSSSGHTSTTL

[6] = biological target: Protein phosphatase 3 catalytic subunit alpha (Homo sapiens, UniProt Q08209); set-up: species or system Escherichia coli
[7] = biological target: Voltage-gated inwardly rectifying potassium channel KCNH2 (Homo sapiens, UniProt Q12809); conditions: hek293; further: in other assays of this panel Not Active means under 50% inhibition at 10 µM
[8] = biological target: Cytochrome P450 3A4 (Homo sapiens, UniProt P08684); conditions: bti-tn-5b1-4; further: in other assays of this panel Not Active means under 50% inhibition at 10 µM
[9] = DRUGMATRIX: ATPase, Na+/K+ enzyme inhibition (substrate: ATP); type: tissue-based, Sus scrofa, Heart; conditions: Not Active = under 50% inhibition at 10 µM

Sequence of Insulin receptor (P15127 27-759 limits assumed): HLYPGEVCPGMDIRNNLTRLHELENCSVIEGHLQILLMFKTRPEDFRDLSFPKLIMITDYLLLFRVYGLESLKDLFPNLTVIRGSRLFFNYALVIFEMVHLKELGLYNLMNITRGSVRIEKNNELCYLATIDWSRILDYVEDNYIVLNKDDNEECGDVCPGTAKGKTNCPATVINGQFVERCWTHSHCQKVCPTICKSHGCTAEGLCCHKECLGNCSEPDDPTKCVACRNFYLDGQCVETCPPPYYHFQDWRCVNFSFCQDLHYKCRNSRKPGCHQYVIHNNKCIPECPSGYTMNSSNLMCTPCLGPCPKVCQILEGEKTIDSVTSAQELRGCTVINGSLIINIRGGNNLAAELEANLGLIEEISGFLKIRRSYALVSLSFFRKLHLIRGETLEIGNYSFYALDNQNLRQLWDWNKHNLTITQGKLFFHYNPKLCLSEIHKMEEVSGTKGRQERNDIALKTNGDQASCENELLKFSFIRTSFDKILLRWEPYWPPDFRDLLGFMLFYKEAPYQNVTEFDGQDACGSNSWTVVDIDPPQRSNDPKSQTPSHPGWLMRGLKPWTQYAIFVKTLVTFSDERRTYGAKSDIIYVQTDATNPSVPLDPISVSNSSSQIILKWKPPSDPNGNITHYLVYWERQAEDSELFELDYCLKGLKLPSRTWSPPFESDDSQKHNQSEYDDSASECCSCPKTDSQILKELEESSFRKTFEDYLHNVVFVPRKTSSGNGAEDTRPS
Sequence of Insulin receptor (P15127 764-1383 limits assumed): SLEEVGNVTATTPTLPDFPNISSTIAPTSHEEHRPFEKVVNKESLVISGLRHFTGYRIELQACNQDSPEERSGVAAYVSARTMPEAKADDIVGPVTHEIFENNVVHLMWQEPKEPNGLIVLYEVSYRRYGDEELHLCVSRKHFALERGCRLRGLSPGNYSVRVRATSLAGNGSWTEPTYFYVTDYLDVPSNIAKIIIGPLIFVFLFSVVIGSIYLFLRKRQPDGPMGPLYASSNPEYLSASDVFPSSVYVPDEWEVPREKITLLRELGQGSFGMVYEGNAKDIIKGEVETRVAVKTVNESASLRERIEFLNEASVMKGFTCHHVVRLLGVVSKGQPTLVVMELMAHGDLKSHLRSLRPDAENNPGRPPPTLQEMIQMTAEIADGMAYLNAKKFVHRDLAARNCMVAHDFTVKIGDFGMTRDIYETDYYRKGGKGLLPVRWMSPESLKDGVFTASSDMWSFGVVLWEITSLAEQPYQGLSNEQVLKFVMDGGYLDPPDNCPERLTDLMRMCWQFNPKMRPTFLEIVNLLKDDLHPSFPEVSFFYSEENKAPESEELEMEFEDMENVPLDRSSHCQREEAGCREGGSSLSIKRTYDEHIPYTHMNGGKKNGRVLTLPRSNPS
Sequence of Cytochrome P450 3A4 (P08684 whole entry): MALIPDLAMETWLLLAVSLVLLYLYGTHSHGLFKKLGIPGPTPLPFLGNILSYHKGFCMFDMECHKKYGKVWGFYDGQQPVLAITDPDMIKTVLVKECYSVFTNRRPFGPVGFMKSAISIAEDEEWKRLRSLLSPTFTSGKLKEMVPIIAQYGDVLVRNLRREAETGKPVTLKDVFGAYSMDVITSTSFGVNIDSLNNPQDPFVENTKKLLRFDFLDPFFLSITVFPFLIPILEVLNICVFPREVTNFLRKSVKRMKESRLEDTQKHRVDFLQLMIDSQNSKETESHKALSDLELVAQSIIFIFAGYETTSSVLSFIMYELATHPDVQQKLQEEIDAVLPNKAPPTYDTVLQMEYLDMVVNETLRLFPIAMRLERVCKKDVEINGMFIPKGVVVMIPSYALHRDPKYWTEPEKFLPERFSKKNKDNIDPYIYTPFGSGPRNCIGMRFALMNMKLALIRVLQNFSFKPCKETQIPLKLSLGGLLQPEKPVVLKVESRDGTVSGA
Sequence of Voltage-gated inwardly rectifying potassium channel KCNH2 (Q12809 whole entry): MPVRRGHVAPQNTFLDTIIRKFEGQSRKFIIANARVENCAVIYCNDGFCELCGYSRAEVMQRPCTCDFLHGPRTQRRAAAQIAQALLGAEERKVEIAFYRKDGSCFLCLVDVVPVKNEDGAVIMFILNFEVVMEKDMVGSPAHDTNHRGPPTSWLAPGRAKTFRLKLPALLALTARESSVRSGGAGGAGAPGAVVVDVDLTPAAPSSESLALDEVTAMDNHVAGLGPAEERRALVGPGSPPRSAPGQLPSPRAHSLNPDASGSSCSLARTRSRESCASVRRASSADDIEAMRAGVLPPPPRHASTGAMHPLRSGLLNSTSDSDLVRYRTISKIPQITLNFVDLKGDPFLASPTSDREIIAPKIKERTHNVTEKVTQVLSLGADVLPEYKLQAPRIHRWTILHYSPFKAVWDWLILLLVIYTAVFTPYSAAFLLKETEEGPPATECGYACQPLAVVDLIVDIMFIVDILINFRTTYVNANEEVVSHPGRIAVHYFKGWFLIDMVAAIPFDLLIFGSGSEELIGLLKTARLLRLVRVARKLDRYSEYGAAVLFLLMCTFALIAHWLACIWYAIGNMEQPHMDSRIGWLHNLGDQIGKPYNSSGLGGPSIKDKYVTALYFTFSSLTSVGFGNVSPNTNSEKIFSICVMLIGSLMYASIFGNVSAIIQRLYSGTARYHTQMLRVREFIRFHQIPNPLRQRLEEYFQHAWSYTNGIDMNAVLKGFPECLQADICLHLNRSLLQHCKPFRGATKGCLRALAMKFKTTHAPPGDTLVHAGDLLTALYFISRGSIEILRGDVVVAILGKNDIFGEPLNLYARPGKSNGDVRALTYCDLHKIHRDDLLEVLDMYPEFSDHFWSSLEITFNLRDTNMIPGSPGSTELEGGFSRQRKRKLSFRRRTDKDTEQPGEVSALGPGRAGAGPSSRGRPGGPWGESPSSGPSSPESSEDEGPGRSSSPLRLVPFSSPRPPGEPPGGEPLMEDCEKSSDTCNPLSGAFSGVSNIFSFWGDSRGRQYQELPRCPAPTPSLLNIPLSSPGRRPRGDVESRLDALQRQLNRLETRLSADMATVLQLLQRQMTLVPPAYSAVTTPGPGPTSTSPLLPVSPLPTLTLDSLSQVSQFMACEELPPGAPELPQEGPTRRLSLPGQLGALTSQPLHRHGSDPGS

c1ccc(Cn2ccnc2)cc1
Not Active: IC50 [1] | IC50 [2] | IC50 [3] | IC50 [4] | IC50 [5] | IC50 [6] | IC50 [7] | Ki [7] | IC50 [8] | Ki [8] | IC50 [9] | Ki [9]

Nc1ccc(Cc2ccc(N)cc2)cc1
Not Active: IC50 [1] | IC50 [2] | IC50 [3] | IC50 [4] | IC50 [5] | IC50 [6] | IC50 [7] | Ki [7] | IC50 [8] | Ki [8] | IC50 [9] | Ki [9]

CC(N)Cc1c[nH]c2ccc(OCc3cccs3)cc12 (configuration not stated) [BW-723C86]
Not Active: IC50 [1] | IC50 [2] | IC50 [3] | IC50 [4] | IC50 [5] | IC50 [6] | IC50 [7] | Ki [7] | IC50 [8] | Ki [8] | IC50 [9] | Ki [9]

CCO [ALCOHOL]
Not Active: IC50 [1] | IC50 [2] | IC50 [3] | IC50 [4] | IC50 [5] | IC50 [6] | IC50 [7] | Ki [7] | IC50 [8] | Ki [8] | IC50 [9] | Ki [9]

Nc1nc(N)c2nc(CNc3ccc(C(=O)N[C@@H](CCC(=O)O)C(=O)O)cc3)cnc2n1 [AMINOPTERIN]
Not Active: IC50 [1] | IC50 [2] | IC50 [3] | IC50 [4] | IC50 [5] | IC50 [6] | IC50 [7] | Ki [7] | IC50 [8] | Ki [8] | IC50 [9] | Ki [9]

CC(C)Cn1cnc2c(N)nc3ccccc3c21 [IMIQUIMOD]
Not Active: IC50 [1] | IC50 [2] | IC50 [3] | IC50 [4] | IC50 [5] | IC50 [6] | IC50 [7] | Ki [7] | IC50 [8] | Ki [8] | IC50 [9] | Ki [9]

C[N+](C)(C)CCOP(=O)([O-])OC[C@H](O)CO
Not Active: IC50 [1] | IC50 [2] | IC50 [3] | IC50 [4] | IC50 [5] | IC50 [6] | IC50 [7] | Ki [7] | IC50 [8] | Ki [8] | IC50 [9] | Ki [9]

OC[C@H]1O[C@@H]2O[C@H]3[C@H](O)[C@@H](O)[C@@H](O[C@H]4[C@H](O)[C@@H](O)[C@@H](O[C@H]5[C@H](O)[C@@H](O)[C@@H](O[C@H]6[C@H](O)[C@@H](O)[C@@H](O[C@H]7[C@H](O)[C@@H](O)[C@@H](O[C@H]8[C@H](O)[C@@H](O)[C@@H](O[C@H]1[C@H](O)[C@H]2O)O[C@@H]8CO)O[C@@H]7CO)O[C@@H]6CO)O[C@@H]5CO)O[C@@H]4CO)O[C@@H]3CO [BETADEX]
Not Active: IC50 [1] | IC50 [2] | IC50 [3] | IC50 [4] | IC50 [5] | IC50 [6] | IC50 [7] | Ki [7] | IC50 [8] | Ki [8] | IC50 [9] | Ki [9]

CARBOXYMETHYLCELLULOSE
Not Active: IC50 [1] | Ki [1] | IC50 [2] | Ki [2] | IC50 [3] | Ki [3] | IC50 [4] | Ki [4] | IC50 [5] | Ki [5] | IC50 [6] | Ki [6] | IC50 [7] | Ki [7] | IC50 [8] | Ki [8] | IC50 [9] | Ki [9]

O=C(O)COC(=O)Cc1ccccc1Nc1c(Cl)cccc1Cl [ACECLOFENAC]
Not Active: IC50 [1] | IC50 [2] | IC50 [3] | IC50 [4] | IC50 [5] | IC50 [6] | IC50 [7] | Ki [7] | IC50 [8] | Ki [8] | IC50 [9] | Ki [9]

COc1ccc(C[C@H](N)C(=O)N[C@H]2[C@@H](O)[C@H](n3cnc4c(N(C)C)ncnc43)O[C@@H]2CO)cc1 [PUROMYCIN]
Not Active: IC50 [1] | IC50 [2] | IC50 [3] | IC50 [4] | IC50 [5] | IC50 [6] | IC50 [7] | Ki [7] | IC50 [8] | Ki [8] | IC50 [9] | Ki [9]

O=C(O)c1ccccc1 [BENZOIC ACID]
Not Active: IC50 [1] | IC50 [2] | IC50 [3] | IC50 [4] | IC50 [5] | IC50 [6] | IC50 [7] | Ki [7] | IC50 [8] | Ki [8] | IC50 [9] | Ki [9]

Oc1ccccc1 [PHENOL]
Not Active: IC50 [1] | IC50 [2] | IC50 [3] | IC50 [4] | IC50 [5] | IC50 [6] | IC50 [7] | Ki [7] | IC50 [8] | Ki [8] | IC50 [9] | Ki [9]

C[C@H](C(=O)O)c1ccc2oc(-c3ccc(F)cc3)nc2c1 [FLUNOXAPROFEN]
Not Active: IC50 [1] | IC50 [2] | IC50 [3] | IC50 [4] | IC50 [5] | IC50 [6] | IC50 [7] | Ki [7] | IC50 [8] | Ki [8] | IC50 [9] | Ki [9]

C[C@@H]1[C@H](O)[C@@H](C)/C=C/C=C/C=C/C=C/C=C/C=C/C=C/[C@H](O[C@@H]2O[C@H](C)[C@@H](O)[C@H](N)[C@@H]2O)C[C@@H]2O[C@](O)(C[C@@H](O)C[C@@H](O)[C@H](O)CC[C@@H](O)C[C@@H](O)CC(=O)O[C@H]1C)C[C@H](O)[C@H]2C(=O)O [AMPHOTERICIN B]
Not Active: IC50 [1] | IC50 [2] | IC50 [3] | IC50 [4] | IC50 [5] | IC50 [6] | IC50 [7] | Ki [7] | IC50 [8] | Ki [8] | IC50 [9] | Ki [9]

COc1cc(NC(C)CCCN)c2ncccc2c1 (configuration not stated) [PRIMAQUINE]
Not Active: IC50 [1] | IC50 [2] | IC50 [3] | IC50 [4] | IC50 [5] | IC50 [6] | IC50 [7] | Ki [7] | IC50 [8] | Ki [8] | IC50 [9] | Ki [9]

COc1cc(/C=C/C(=O)O)ccc1O [FERULATE]
Not Active: IC50 [1] | IC50 [2] | IC50 [3] | IC50 [4] | IC50 [5] | IC50 [6] | IC50 [7] | Ki [7] | IC50 [8] | Ki [8] | IC50 [9] | Ki [9]

C=CCN1CC[C@]23c4c5ccc(O)c4O[C@H]2/C(=N/N=C2\CC[C@@]4(O)[C@H]6Cc7ccc(O)c8c7[C@@]4(CCN6CC=C)[C@H]2O8)CC[C@@]3(O)[C@H]1C5 [NALOXONAZINE]
Not Active: IC50 [1] | IC50 [2] | IC50 [3] | IC50 [4] | IC50 [5] | IC50 [6] | IC50 [7] | Ki [7] | IC50 [8] | Ki [8] | IC50 [9] | Ki [9]
